Laboratory results as given in US8337828B2, “Use of thymosin alpha 1, alone or in combination with PTX3 or ganciclovir, for the treatment of cytomegalovirus infection” (priority 2006, dated 2012).
Ends that are not written are not given here.

Assays:
spleen cells = experiment: Cytokine levels in culture supernatants of spleen cells from MCMV-infected mice (ELISA); format: in vivo
Excerpt: Arrow indicates an inducible band. Lane 1, uninfected cells; lane 2, MCMV-infected; lane 3, Thymosin alpha 1 treated; lane 4, MCMV+Thymosin alpha 1 treated. (FIG. 3b) Cytokine production (pg/ml) by DC subsets treated as above. Bars indicate the standard errors. *P<0.05, cytokine production in MCMV-infected DC vs uninfected DC. **P<0.05, Thymosin alpha 1-treated vs untreated DC. (FIG. 3c) Cytokine production in mice during MCMV infection. Cytokine levels (pg/ml) in culture supernatants of spleen cells from mice with MCMV infection and treated for a week with Thymosin alpha 1 or GCV. *P<0.05, treated vs untreated mice. ND, not done.
Viral load (FIG. 4a) and cytokine production (FIG. 4b) in C57BL6, TLR4−/−, TLR9−/− and MyD88−/− mice infected with 5×10^5 PFU of MCMV and treated with 200 μg/kg Tα1 for a week. Virus titers, expressed as log 10, were quantified on MEF cells by standard plaque assay on infected tissues removed a week after infection and treatment. Cytokine (pg/ml) levels in culture supernatants of spleen cells were determined by ELISA assay. Bars indicate the standard errors. *P<0.05, Tα1-treated vs untreated mice. Results are representative of 3 independent experiments.
BALB/c or C57BL6 mice were infected with 10^5 or 5×10^5 PFU of MCMV, respectively. Virus titers, expressed as log 10, were quantified on MEF cells by standard plaque assay on lung tissues removed 7 days after the infection. Tα1 (200 μg/kg/daily for a week) and/or GCV (40 mg/kg, three times a week) were administered beginning the day of the infection. Cytokine (pg/ml) levels in culture supernatants of spleen cells (7 days) were determined by ELISA assay. Bars indicate the standard errors. *P<0.05, treated vs untreated mice. Results are representative of 3 independent experiments.
Quantification of cytokines by ELISA and ELISPOT assays. The levels of cytokines in the culture supernatants of mitogen-stimulated spleen cells (48 h stimulation with 10 μg/ml ConA) or MCMV-pulsed DC (24 h) were determined by ELISA (R&D Systems and PBL, Biomedical Lab, Milan, Italy). The detection limits (pg/ml) of the assays were <16 for IL-12 p70, <10 for IFN-., <3 for IL-10 and <10 for IFN-a. IFN-.-producing NK cells were enumerated by ELISPOT assay on purified NK (Virus Res. 2003; 98:17-467 25). Results are expressed as the mean number of cytokine-producing cells (±SE) per 10^5 cells, calculated using replicates of serial 2-fold dilutions of cells.

MCMV = experiment: Viral replication in DC subsets (real-time PCR of MCMV gB transcripts); format: cell-based, BALB/c mice; conditions: 50 μg/ml for 2 h before infection, 48 h
Description: (§1) (FIG. 3a) CD11b+DC or pDC were generated from bone marrow of BALB/c mice, infected with MCMV and assessed for morphology by light microscopy and viral replication by real-time PCR of MCMV gB transcripts expression (both at 48 h) or for IRF7 nuclear expression by immunobloting with anti-IRF7 (2 h later). Cells were exposed (+) or not (−) to 50 μg/ml Thymosin alpha 1 for 2 h at 37° C. before infection. − represents uninfected cells. The results shown represent one representative experiment out of 3.
DC subset generation. DC were obtained by culturing 10^6/ml BALB/c bone marrow cells in Iscove's modified medium, containing 10% filtered bovine serum, 50 μM 2-mercaptoethanol, sodium pyruvate (1 mM), 2 mM L-glutamine, HEPES (10 mM), and 50 μg/ml gentamycin in the presence of 150 U/ml mouse rGM-CSF (Sigma) and 75 U/ml rIL-4 (R&D Systems) for 7 days to obtain CD11b+DC or 200 ng/ml FLT3-L (Immunex Corporation, Seattle, Wash.) for 9 days to obtain pDC. […]
Inhibition of viral replication. […] Infectivity was measured 48 h later.
Real time RT-PCR for quantification of MCMV mRNA. […]

IRF7 = experiment: Immunoblot analysis of nuclear IRF7 in DC subsets; format: cell-based, BALB/c mice; conditions: pDC, 50 μg/ml, alone or in combination with virus
Description: as §1
Immunoblot analysis of IRF7. DC were exposed for […] 50 μg/ml Thymosin alpha 1 or 10^5 PFU MCMV, either alone or in combination. Nuclear extracts were prepared with NE-PER nuclear and cytoplasmic extraction reagents (Pierce, Celbio S.r.l., Milan, Italy) and the protein concentration of the nuclear extracts was determined with a BCA-200 protein assay kit (Pierce) following the manufacture's instructions. Nuclear content of IRF7 was determined by Western blot using rabbit anti-IRF7 (H246) antibody and bovine anti-rabbit-horseradish peroxidase (Santa Cruz Biotechnology). Visualization was performed with the ECL Western blotting analysis system from Amersham and Kodak Biomax films.

lymphosarcoma cells = conditions: mouse, in vivo; cited from earlier work
[1] = BALB/c mice with MCMV infection, particularly in the first weeks

Ac-Ser-Asp-Ala-Ala-Val-Asp-Thr-Ser-Ser-Glu -Ile-Thr-Thr-Lys-Asp-Leu-Lys-Glu-Lys-Lys-Glu-Val-Glu-Glu-Ala-Glu-Asn-O (Ac-SDAAVDTSSEITTKDLKEKKEVEEAEN) [Thymosin alpha 1, acidic peptide present in thymus extract with immunoregulatory properties]
IL-10 production (spleen cells; BALB/c mice with MCMV infection): dramatically increased | IFN-. production (spleen cells; [1]): significantly increased | IFN-a production (spleen cells; [1]): significantly increased | IL-12p70 production (spleen cells; BALB/c mice with MCMV infection, soon after treatment, declining thereafter): slightly increased | levels of IFN-α, IL-12p70 and IFN-. in supernatants of splenocytes (spleen cells; C57BL6 and TLR4-/- mice, 200 μg/kg for a week): significantly increased | viral replication (MCMV; CD11b+DC): not affected | viral replication (MCMV; pDC): actually promoted | nuclear IRF7 expression (translocation) (IRF7): translocation of IRF7 | local sarcoma growth, liver and lung metastases of lymphosarcoma cells (lymphosarcoma cells): significantly reduced
